Tests used:
pigweed = assay: Test B pre/postemergence pigweed; assay type: in vivo, Amaranthus retroflexus
Procedure, shortened: (§1)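 Herbicidal effect was estimated by eye on a ten-point control scale after plants spent twelve to sixteen days in a greenhouse following soil or foliar treatment. Foliar sprays targeted plants at one to four leaves; all doses were formulated in a non-phytotoxic solvent with surfactant.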

rape = assay: Test B pre/postemergence rape; assay type: in vivo, Brassica napus
Procedure, shortened: as §1

soybean = assay: Test B pre/postemergence soybean; assay type: in vivo, Glycine max
Procedure, shortened: as §1

sugar beet = assay: Test B pre/postemergence sugar beet; assay type: in vivo, Beta vulgaris
Procedure, shortened: as §1

[1] = Postemergence, Rate 31 g/ha, visual rating, scale 0 to 10 (0 no effect, 10 complete control)
[2] = Postemergence, Rate 125 g/ha, scale 0 to 10, 0 is no effect, 10 is complete control
[3] = Postemergence, Rate 250 g/ha, scale 0 to 10
[4] = Preemergence, Rate 62 g/ha, scale of 0 to 10 where 0 is no effect and 10 is complete control
[5] = Preemergence, Rate 125 g/ha, scale 0 to 10, 0 is no effect, 10 is complete control
[6] = Preemergence, Rate 250 g/ha, scale 0 to 10, 0 is no effect, 10 is complete control
[7] = Rate 62 g/ha, Postemergence, scale 0 to 10, 0 no effect, 10 complete control
[8] = Postemergence, Rate 62 g/ha, scale 0 to 10, 0 is no effect, 10 is complete control
[9] = Postemergence, Rate 125 g/ha, scale of 0 to 10 where 0 is no effect and 10 is complete control
[10] = Postemergence, Rate 250 g/ha, scale of 0 to 10, 0 is no effect, 10 is complete control
[11] = Preemergence, Rate 62 g/ha, scale 0 to 10 (0 no effect, 10 complete control)
[12] = Preemergence, Rate 125 g/ha, scale of 0 to 10 where 0 is no effect and 10 is complete control
[13] = Preemergence, Rate 250 g/ha, scale 0 to 10 (0 no effect, 10 complete control)
[14] = Preemergence, Rate 500 g/ha, scale of 0 to 10 where 0 is no effect and 10 is complete control
[15] = Postemergence, Rate 500 g/ha, scale of 0 to 10 where 0 is no effect and 10 is complete control

## CC(C)N(C(=O)n1oc(=O)n(CC[N+](=O)[O-])c1=O)c1ccc(Cl)cc1 [Compound 483]
pigweed; [1]
  Redroot pigweed plant response rating: 0
pigweed; [2]
  Redroot pigweed plant response rating: 0
pigweed; [3]
  Redroot pigweed plant response rating: 0
pigweed; [4]
  Plant response rating, Redroot pigweed: 0
pigweed; [5]
  Redroot pigweed plant response rating: 0
pigweed; [6]
  Redroot pigweed plant response rating: 0
pigweed; [7]
  Redroot pigweed plant response rating: 0
rape; [1]
  Rape plant response rating: 0
rape; [2]
  Rape plant response rating: 0
rape; [3]
  Rape plant response rating: 0
rape; [4]
  Plant response rating, Rape: 0
rape; [5]
  Rape plant response rating: 0
rape; [6]
  Rape plant response rating: 0
rape; [7]
  Rape plant response rating: 0
soybean; [1]
  Soybean plant response rating: 0
soybean; [2]
  Soybean plant response rating: 0
soybean; [3]
  Soybean plant response rating: 0
soybean; [4]
  Plant response rating, Soybean: 0
soybean; [5]
  Soybean plant response rating: 0
soybean; [6]
  Soybean plant response rating: 0
soybean; [7]
  Soybean plant response rating: 0
Sugar beet; [1]
  Sugarbeets plant response rating: 0
Sugar beet; [2]
  Sugarbeets plant response rating: 0
Sugar beet; [3]
  Sugarbeets plant response rating: 0
Sugar beet; [4]
  Plant response rating, Sugarbeets: 0
Sugar beet; [5]
  Sugarbeets plant response rating: 0
Sugar beet; [6]
  Sugarbeets plant response rating: 0
Sugar beet; [7]
  Sugarbeets plant response rating: 0

## CC(C)N(C(=O)n1oc(=O)n(CNC(=O)c2ccccc2)c1=O)c1ccc(F)cc1F [Compound 619]
pigweed; [8]
  Plant response rating, Redroot pigweed: 0
pigweed; [9]
  Plant response rating, Redroot pigweed: 0
pigweed; [10]
  Redroot pigweed plant response rating: 1
pigweed; [11]
  Redroot pigweed plant response rating: 0
pigweed; [12]
  Redroot pigweed plant response rating: 0
pigweed; [13]
  Plant response rating, Redroot pigweed: 0
pigweed; [14]
  Plant response rating, Redroot pigweed: 0
rape; [8]
  Plant response rating, Rape: 0
rape; [9]
  Plant response rating, Rape: 0
rape; [10]
  Rape plant response rating: 0
rape; [15]
  Plant response rating, Rape: 3
rape; [11]
  Rape plant response rating: 0
rape; [12]
  Rape plant response rating: 0
rape; [13]
  Plant response rating, Rape: 0
rape; [14]
  Plant response rating, Rape: 0
soybean; [8]
  Plant response rating, Soybean: 1
soybean; [9]
  Plant response rating, Soybean: 1
soybean; [10]
  Soybean plant response rating: 1
soybean; [11]
  Soybean plant response rating: 0
soybean; [12]
  Soybean plant response rating: 0
soybean; [13]
  Plant response rating, Soybean: 0
soybean; [14]
  Plant response rating, Soybean: 0
Sugar beet; [8]
  Plant response rating, Sugarbeets: 0
Sugar beet; [9]
  Plant response rating, Sugarbeets: 0
Sugar beet; [10]
  Sugarbeets plant response rating: 0
Sugar beet; [11]
  Sugarbeets plant response rating: 0
Sugar beet; [12]
  Sugarbeets plant response rating: 0
Sugar beet; [13]
  Plant response rating, Sugarbeets: 0
Sugar beet; [14]
  Plant response rating, Sugarbeets: 0

## CC(=O)NCn1c(=O)on(C(=O)N(c2ccccc2)C(C)C)c1=O [Compound 621]
pigweed; [8]
  Plant response rating, Redroot pigweed: 0
pigweed; [9]
  Plant response rating, Redroot pigweed: 0
pigweed; [10]
  Redroot pigweed plant response rating: 0
pigweed; [11]
  Redroot pigweed plant response rating: 0
pigweed; [12]
  Redroot pigweed plant response rating: 0
pigweed; [13]
  Plant response rating, Redroot pigweed: 0
pigweed; [14]
  Plant response rating, Redroot pigweed: 0
rape; [8]
  Plant response rating, Rape: 0
rape; [9]
  Plant response rating, Rape: 0
rape; [10]
  Rape plant response rating: 0
rape; [15]
  Plant response rating, Rape: 0
rape; [11]
  Rape plant response rating: 0
rape; [12]
  Rape plant response rating: 0
rape; [13]
  Plant response rating, Rape: 0
rape; [14]
  Plant response rating, Rape: 0
soybean; [8]
  Plant response rating, Soybean: 1
soybean; [9]
  Plant response rating, Soybean: 5
soybean; [10]
  Soybean plant response rating: 5
soybean; [11]
  Soybean plant response rating: 0
soybean; [12]
  Soybean plant response rating: 0
soybean; [13]
  Plant response rating, Soybean: 0
soybean; [14]
  Plant response rating, Soybean: 3
Sugar beet; [8]
  Plant response rating, Sugarbeets: 0
Sugar beet; [9]
  Plant response rating, Sugarbeets: 0
Sugar beet; [10]
  Sugarbeets plant response rating: 0
Sugar beet; [11]
  Sugarbeets plant response rating: 0
Sugar beet; [12]
  Sugarbeets plant response rating: 0
Sugar beet; [13]
  Plant response rating, Sugarbeets: 0
Sugar beet; [14]
  Plant response rating, Sugarbeets: 0

## CC(=O)N(C)CCn1c(=O)on(C(=O)N(c2ccc(F)cc2)C(C)C)c1=O [Compound 625]
pigweed; [8]
  Plant response rating, Redroot pigweed: 0
pigweed; [9]
  Plant response rating, Redroot pigweed: 0
pigweed; [10]
  Redroot pigweed plant response rating: 0
pigweed; [11]
  Redroot pigweed plant response rating: 0
pigweed; [12]
  Redroot pigweed plant response rating: 0
pigweed; [13]
  Plant response rating, Redroot pigweed: 4
pigweed; [14]
  Plant response rating, Redroot pigweed: 8
rape; [8]
  Plant response rating, Rape: 0
rape; [9]
  Plant response rating, Rape: 0
rape; [10]
  Rape plant response rating: 0
rape; [15]
  Plant response rating, Rape: 0
rape; [11]
  Rape plant response rating: 0
rape; [12]
  Rape plant response rating: 0
rape; [14]
  Plant response rating, Rape: 4
soybean; [8]
  Plant response rating, Soybean: 0
soybean; [9]
  Plant response rating, Soybean: 2
soybean; [10]
  Soybean plant response rating: 3
soybean; [11]
  Soybean plant response rating: 0
soybean; [12]
  Soybean plant response rating: 0
soybean; [13]
  Plant response rating, Soybean: 0
soybean; [14]
  Plant response rating, Soybean: 0
Sugar beet; [8]
  Plant response rating, Sugarbeets: 0
Sugar beet; [9]
  Plant response rating, Sugarbeets: 0
Sugar beet; [10]
  Sugarbeets plant response rating: 0
Sugar beet; [11]
  Sugarbeets plant response rating: 0
Sugar beet; [12]
  Sugarbeets plant response rating: 0
Sugar beet; [13]
  Plant response rating, Sugarbeets: 0
Sugar beet; [14]
  Plant response rating, Sugarbeets: 0

## CCCCCn1c(=O)on(C(=O)N(c2ccc(F)cc2F)C(C)C)c1=O [Compound 636]
pigweed; [8]
  Plant response rating, Redroot pigweed: 0
pigweed; [9]
  Plant response rating, Redroot pigweed: 0
pigweed; [10]
  Redroot pigweed plant response rating: 6
pigweed; [4]
  Redroot pigweed plant response rating: 10
pigweed; [12]
  Redroot pigweed plant response rating: 10
pigweed; [13]
  Plant response rating, Redroot pigweed: 10
pigweed; [14]
  Plant response rating, Redroot pigweed: 10
rape; [8]
  Plant response rating, Rape: 2
rape; [9]
  Plant response rating, Rape: 6
rape; [10]
  Rape plant response rating: 7
rape; [15]
  Plant response rating, Rape: 7
rape; [4]
  Rape plant response rating: 0
rape; [12]
  Rape plant response rating: 2
rape; [13]
  Plant response rating, Rape: 7
rape; [14]
  Plant response rating, Rape: 10
soybean; [8]
  Plant response rating, Soybean: 2
soybean; [9]
  Plant response rating, Soybean: 2
soybean; [10]
  Soybean plant response rating: 4
soybean; [4]
  Soybean plant response rating: 0
soybean; [12]
  Soybean plant response rating: 0
soybean; [13]
  Plant response rating, Soybean: 0
soybean; [14]
  Plant response rating, Soybean: 4
Sugar beet; [8]
  Plant response rating, Sugarbeets: 2
Sugar beet; [9]
  Plant response rating, Sugarbeets: 2
Sugar beet; [10]
  Sugarbeets plant response rating: 5
Sugar beet; [4]
  Sugarbeets plant response rating: 0
Sugar beet; [12]
  Sugarbeets plant response rating: 0
Sugar beet; [13]
  Plant response rating, Sugarbeets: 6
Sugar beet; [14]
  Plant response rating, Sugarbeets: 7
